Earlier results in patent US8097625B2, “Combination of sedative and a neurotransmitter modulator, and methods for improving sleep quality and treating depression” (priority 2003, dated 2012).
pKi: −log10 of the molar value. Counter-ions that a name gives are not always drawn.

Tests used:
[1] = oral, 10 mg or 20 mg daily doses; cited from earlier work
[2] = system: patients with major depression; details: 24 patients (37 trials) with major depression, 3 weeks; cited from earlier work
[3] = system: norepinephrine and serotonin reuptake; details: cited from earlier work
[4] = humans, cited from earlier work
[5] = cited from earlier work
[6] = target: norepinephrine transporter (Homo sapiens, UniProt P23975); details: cited from earlier work
Sequence of norepinephrine transporter (P23975 whole entry): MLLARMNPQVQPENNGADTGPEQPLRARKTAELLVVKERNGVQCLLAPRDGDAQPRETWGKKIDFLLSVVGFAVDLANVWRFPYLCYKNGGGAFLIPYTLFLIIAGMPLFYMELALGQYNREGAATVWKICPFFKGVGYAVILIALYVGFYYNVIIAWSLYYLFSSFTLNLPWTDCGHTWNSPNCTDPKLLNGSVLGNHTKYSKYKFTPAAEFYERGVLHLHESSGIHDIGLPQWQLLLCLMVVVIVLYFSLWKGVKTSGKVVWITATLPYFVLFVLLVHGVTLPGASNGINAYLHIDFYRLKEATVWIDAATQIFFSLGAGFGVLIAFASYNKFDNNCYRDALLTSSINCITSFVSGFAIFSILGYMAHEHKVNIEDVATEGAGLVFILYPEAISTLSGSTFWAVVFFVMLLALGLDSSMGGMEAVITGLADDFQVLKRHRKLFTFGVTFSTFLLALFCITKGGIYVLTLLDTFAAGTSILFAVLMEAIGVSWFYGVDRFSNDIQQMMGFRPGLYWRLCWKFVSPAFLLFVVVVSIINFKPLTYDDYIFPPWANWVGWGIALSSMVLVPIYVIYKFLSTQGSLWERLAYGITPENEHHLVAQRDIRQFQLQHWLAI

[7] = cited from earlier work; remark: listed apart in the source
[8] = system: lumbar dorsal horn interneurones and Renshaw cells; details: cats anaesthetized with pentobarbitone sodium; electrophoretic currents; cited from earlier work
GABA uptake system = system: GABA uptake system; parameters: dose or concentration left out as unconfirmed; details: cited from earlier work
[9] = target: GABA:2-oxo-glutarate aminotransferase (Homo sapiens, UniProt P80404); details: 10^−3 M; cited from earlier work
Sequence of GABA:2-oxo-glutarate aminotransferase (P80404 29-500): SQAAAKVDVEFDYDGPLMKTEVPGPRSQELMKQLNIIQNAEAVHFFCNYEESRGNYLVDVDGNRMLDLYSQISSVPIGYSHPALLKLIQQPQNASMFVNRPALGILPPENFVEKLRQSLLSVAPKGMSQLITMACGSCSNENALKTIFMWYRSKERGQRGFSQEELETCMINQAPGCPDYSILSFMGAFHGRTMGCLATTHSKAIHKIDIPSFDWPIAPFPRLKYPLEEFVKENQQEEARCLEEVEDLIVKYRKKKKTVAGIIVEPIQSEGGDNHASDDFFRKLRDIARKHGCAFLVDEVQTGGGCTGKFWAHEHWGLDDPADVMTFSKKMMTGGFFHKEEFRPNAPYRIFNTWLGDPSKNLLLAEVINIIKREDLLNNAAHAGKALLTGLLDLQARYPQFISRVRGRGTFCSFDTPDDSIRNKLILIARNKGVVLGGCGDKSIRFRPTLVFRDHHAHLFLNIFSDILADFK

[10] = system: L-glutamate 1-carboxylase; details: 10^−3 M; cited from earlier work
mice = details: reference agents, scores below 40 denote behavioral depression; cited from earlier work
[11] = humans, 20 or 40 mg b.i.d. for 7 days; cited from earlier work
[12] = oral; cited from earlier work

Q: With `CNCCC(Oc1ccc(C(F)(F)F)cc1)c1ccccc1.Cl` (racemic) [Fluoxetine hydrochloride, N-methyl-3-(p-trifluormethylphenoxy)3-phenylpropylamine] as the molecule, how does the elimination half-life [1] read?
A: The elimination half-life was 24 to 220 h.

Q: And the “elimination half-life, averaging” value [1]?
A: Its value is 48 to 72 h.

Q: Which “Hamilton Scores” value [2] does the source give for `CNCC(O)CC12CCC(c3ccccc31)c1ccccc12` (racemic) [oxaprotiline, (±)-α-[(Methylamino)-methyl]-9,10-ethanoanthracene-9(10H)-ethanol] here?
A: The value was “significant reduction”.

Q: For `CCN(CC)C(=O)[C@@]1(c2ccccc2)C[C@H]1CN` (single isomer, unassigned) [dextrogyral enantiomer of milnacipran], which “activity in inhibiting norepinephrine and serotonin reuptake versus the racemic mixture” value [3] is on record?
A: Its value is “about twice as active”.

Q: Which “activity in inhibiting norepinephrine and serotonin reuptake versus the racemic mixture” value [3] does the source give for `CCN(CC)C(=O)[C@@]1(c2ccccc2)C[C@H]1CN` (single isomer, unassigned) [levrogyral enantiomer] here?
A: Its value is “much less potent”.

Q: With `CC(NC(C)(C)C)C(=O)c1cccc(Cl)c1` (stereo not drawn) [Bupropion] as the molecule, how does the “mean elimination half-life (±SD)” value ([4]; after chronic dosing) read?
A: The value was 21 (±9) hours.

Q: What about the “terminal phase mean half-life” value ([4]; oral administration) of the same molecule?
A: Its value is 14 h.

Q: Which “solubility in water (in words)” value [5] does the source give for `CNCCCN1c2ccccc2CCc2ccccc21` [Desipramine hydrochloride, 10,11-Dihydro-N-methyl-5H-dibenz[b,f]azepine-5-propanamine] here?
A: Its value is “soluble in water”.

Q: With `c1ccc(CCCN2CCN(CCOC(c3ccccc3)c3ccccc3)CC2)cc1` [GBR-12935, 1-[2-(diphenylmethoxy)ethyl]-4-(3-phenylpropyl)piperazine dihydrochloride] as the molecule, how does the pKi [6] read?
A: Its pKi is 6.65.

Q: Which “resulting pH of solution in water” value ([5]; at approximately 20-30 µg/mL) does the source give for `CC(=O)N(C)c1cccc(-c2ccnc3c(C(=O)c4cccs4)cnn23)c1` [Indiplon, N-methyl-N-(3-{3-[2-thienylcarbonyl]-pyrazolo-[1,5-a]-pyrimidin-7-yl}-phenyl)acetamide] here?
A: The value was “approximately 8.0”.

Q: And the soluble in water ([5]; resulting pH approximately 8.0)?
A: Its soluble in water is 20 to 30 µg/mL.

Q: What about the half-life in vivo [7] of the same molecule?
A: The half-life in vivo was “approximately 1.3 hours”.

Q: For `CNCCCC12CCC(c3ccccc31)c1ccccc12` [Maprotiline hydrochloride, N-Methyl-9,10-ethanoanthracene-9(10H)-propanamine], which “solubility in water (in words)” value [5] is on record?
A: The value was “slightly soluble in water”.

Q: For `Oc1noc2c1CCNC2` [gaboxadol, 4,5,6,7-tetrahydroisoxazolo[5,4-c]pyridin-3-ol], which “potency versus GABA, inhibition of the firing of central neurones” value [8] is on record?
A: The value was “relatively more potent than GABA”.

Q: And the “interaction with the GABA uptake system” value (GABA uptake system)?
A: The value was “did not interact”.

Q: What about the “interaction with GABA:2-oxo-glutarate aminotransferase” value [9] of the same molecule?
A: The value was “did not interact”.

Q: And the “interaction with L-glutamate 1-carboxylase” value [10]?
A: Its value is “did not interact”.

Q: For `CCC1(c2ccccc2)CCC(=O)NC1=O` (stereo not drawn) [glutethimide], which ED100 (mice) is on record?
A: Its ED100 is 300 mg/kg.

Q: For `O=C(CCCN1CCC(O)(c2ccc(Cl)cc2)CC1)c1ccc(F)cc1` [haloperidol], which ED100 (mice) is on record?
A: The ED100 was 10 mg/kg.

Q: Which ED100 (mice) does the source give for `CCCC(C)(COC(N)=O)COC(N)=O` [meprobamate] here?
A: The ED100 was 300 mg/kg.

Q: For `CCCC(C)C1(CC)C(=O)NC(=O)NC1=O` (stereo not drawn) [pentobarbital], which ED100 (mice) is on record?
A: Its ED100 is 100 mg/kg.

Q: Which ED100 (mice) does the source give for `COC(=O)[C@H]1[C@H]2C[C@@H]3c4[nH]c5cc(OC)ccc5c4CCN3C[C@H]2C[C@@H](OC(=O)c2cc(OC)c(OC)c(OC)c2)[C@@H]1OC` [reserpine] here?
A: Its ED100 is 50 mg/kg.

Q: Which drug-related adverse effects [11] does the source give for `CNCC[C@@H](Oc1ccccc1C)c1ccccc1` [tomoxetine, (R)-(−)-N-methyl-3-(2-methylphenoxy)-3-phenylpropylamine] here?
A: Its drug-related adverse effects is “no serious drug-related adverse effects were observed”.

Q: For `Cc1ccc(-c2nc3ccc(C)cn3c2CC(=O)N(C)C)cc1` [zolpidem, N,N,6-trimethyl-2-(4-methylphenyl)-imidazo [1,2-s]pyridine-3-acetamide], which duration of action [12] is on record?
A: The duration of action was “up to 6 hours”.
